In the experiment the target is T1, DC-SIGN (Homo sapiens, UniProt Q9NNX6).
T1 sequence (Q9NNX6 254-404): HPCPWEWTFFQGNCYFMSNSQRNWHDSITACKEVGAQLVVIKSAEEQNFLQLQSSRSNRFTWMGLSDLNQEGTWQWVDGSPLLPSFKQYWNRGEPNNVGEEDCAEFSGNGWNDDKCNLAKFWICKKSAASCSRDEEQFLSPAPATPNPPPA
Nature of the experiment: 1H-15N HSQC NMR titration. It counts as binding.

These results are taken from paper PMC6646960 (ACS Chemical Biology, 2019).

For the compound `C[C@@H]1OC(O)[C@@H](O)[C@H](O)[C@@H]1O` (stereo partly shown) [compound 4, Fuc], binding was put at a Kd of 4.1 ± 0.7 mM.

One may read the Kd as the constant that tells how readily two partners part at equilibrium. Higher therefore signals lower affinity.
